Reference: ChEMBL document CHEMBL1201862, “PubChem BioAssay data set” (2004)
Active and inactive are the calls of the source.

Experiments:
[1] = biological target: T1, Ubiquitin-conjugating enzyme E2 N (Homo sapiens, UniProt P61088); format: functional;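 also: Dose-response confirmation in a TR-FRET assay detecting UBC13-driven polyubiquitin chain formation, inhibition measured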
T1 sequence (P61088 whole entry): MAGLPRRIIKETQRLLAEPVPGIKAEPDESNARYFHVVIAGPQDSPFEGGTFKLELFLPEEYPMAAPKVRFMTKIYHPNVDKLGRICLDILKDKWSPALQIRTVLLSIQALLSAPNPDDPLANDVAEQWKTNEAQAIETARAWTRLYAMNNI

[2] = biological target: FAD-linked sulfhydryl oxidase ALR (Homo sapiens, UniProt P55789); experiment: inhibitors of human ALR sulfhydryl oxidase, dose response, biochemical, H2O2 detection, luminescence, cherry-pick (AID 493248)
[3] = intracellular Trypanosoma cruzi inhibitors in host cells – cell-based, plate reader, cherry-pick samples, set 3, dose response (AID 651818); format: functional;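 also: compounds incubated with infected cells for about four days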
[4] = biological target: T2, Corticotropin-releasing factor receptor 2/Corticotropin-releasing factor-binding protein (Homo sapiens, UniProt P24387+Q13324); experiment: activators of CRF receptor 2 with binding protein – uHTS hits, confirmation (AID 602473); format: functional; conditions: read-out: EC50_Mean
T2 sequence (Q13324 whole entry): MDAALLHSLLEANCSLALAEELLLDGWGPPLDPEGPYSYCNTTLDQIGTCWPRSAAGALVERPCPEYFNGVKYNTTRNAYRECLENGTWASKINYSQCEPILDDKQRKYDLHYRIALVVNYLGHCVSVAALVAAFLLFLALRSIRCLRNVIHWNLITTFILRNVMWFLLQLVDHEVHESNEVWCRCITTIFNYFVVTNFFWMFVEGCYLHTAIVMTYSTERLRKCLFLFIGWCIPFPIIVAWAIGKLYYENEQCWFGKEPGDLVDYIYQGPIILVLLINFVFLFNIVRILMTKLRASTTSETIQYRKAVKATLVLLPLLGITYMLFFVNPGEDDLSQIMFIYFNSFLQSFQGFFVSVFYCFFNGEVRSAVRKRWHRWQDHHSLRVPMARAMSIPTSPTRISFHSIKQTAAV
T2 sequence (P24387 whole entry): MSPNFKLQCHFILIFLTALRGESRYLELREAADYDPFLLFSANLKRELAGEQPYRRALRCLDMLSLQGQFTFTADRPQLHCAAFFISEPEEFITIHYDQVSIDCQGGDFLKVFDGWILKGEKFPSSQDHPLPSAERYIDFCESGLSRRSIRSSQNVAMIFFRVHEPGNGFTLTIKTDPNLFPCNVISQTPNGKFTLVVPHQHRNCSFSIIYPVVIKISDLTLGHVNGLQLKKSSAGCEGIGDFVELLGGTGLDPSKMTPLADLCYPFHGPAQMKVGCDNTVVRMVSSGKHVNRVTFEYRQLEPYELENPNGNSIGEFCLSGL

[5] = biological target: T2, Corticotropin-releasing factor receptor 2/Corticotropin-releasing factor-binding protein; experiment: Dose Response confirmation of uHTS hits for small molecule antagonists of the CRF-binding protein and CRF-R2 receptor complex.; format: functional; conditions: read-out: IC50_Mean
[6] = Luminescence Cell-Based Dose Confirmation HTS to Identify Inhibitors of Platelet Dense Granule Release. [Related pubchem assays: 1663 (Primary HTS), 1678 (Summary of Project)]; format: functional
[7] = biological target: Luciferin 4-monooxygenase (Photinus pyralis, UniProt P08659); experiment: firefly luciferase enzyme inhibitors, dose response, biochemical, luminescence (AID 1891)
[8] = HepG2 cell cytotoxicity, dose response, cytotoxicity control, plate reader, cherry-pick, antagonist series (AID 743416); format: functional, cell-based
[9] = inhibitors of intracellular T. cruzi replication, confirmation, NIH3T3 host cells, beta-gal luminescence (AID 2044); format: functional, cell-based;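 also: intracellular parasites grown in NIH/3T3 mouse fibroblasts as host cells; luminescent beta-galactosidase reporter signal from transgenic T. cruzi replicating inside host cells; inhibitors lower the luminescence signal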
cells = format: functional
[10] = cytotoxicity toward NIH3T3 fibroblasts, dose response, counter-screen, cell-based, ATP luminescence, mouse fibroblasts (AID 2010); format: functional;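 also: cells exposed to compound for about 90 hours before reading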
[11] = P. falciparum Dd2 growth inhibitors, dose response, SYBR Green, cherry-picked samples (AID 1159567); format: functional, cell-based
Paired box protein Pax-8 = Paired box protein Pax-8 (Homo sapiens, UniProt Q06710); experiment: inhibitors of PAX8-driven TPO luciferase reporter, dose response, RMG-I cells, cherry-pick (AID 687027); format: functional, cell-based;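 also: luciferase reporter driven by Pax8 target thyroperoxidase promoter measured by SteadyGlo luminescence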
[12] = NIH:OVCAR-3 ovarian cancer cell cytotoxicity, dose response, PAX8 inhibitor project, plate reader, dry powder samples (AID 743044); format: functional, cell-based
[13] = cytotoxicity in OVCAR8 ovarian cancer cells, dose response, PAX8 project, cell-based, plate reader, dry powder samples (AID 743197); format: functional; conditions: OVCAR-8

Sequence of FAD-linked sulfhydryl oxidase ALR (P55789 whole entry): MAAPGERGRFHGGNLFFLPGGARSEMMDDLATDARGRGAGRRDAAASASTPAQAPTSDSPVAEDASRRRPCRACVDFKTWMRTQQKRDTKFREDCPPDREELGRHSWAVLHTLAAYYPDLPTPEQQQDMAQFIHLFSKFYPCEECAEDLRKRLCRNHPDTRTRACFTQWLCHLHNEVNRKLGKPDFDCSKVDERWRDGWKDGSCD
Sequence of Luciferin 4-monooxygenase (P08659 whole entry): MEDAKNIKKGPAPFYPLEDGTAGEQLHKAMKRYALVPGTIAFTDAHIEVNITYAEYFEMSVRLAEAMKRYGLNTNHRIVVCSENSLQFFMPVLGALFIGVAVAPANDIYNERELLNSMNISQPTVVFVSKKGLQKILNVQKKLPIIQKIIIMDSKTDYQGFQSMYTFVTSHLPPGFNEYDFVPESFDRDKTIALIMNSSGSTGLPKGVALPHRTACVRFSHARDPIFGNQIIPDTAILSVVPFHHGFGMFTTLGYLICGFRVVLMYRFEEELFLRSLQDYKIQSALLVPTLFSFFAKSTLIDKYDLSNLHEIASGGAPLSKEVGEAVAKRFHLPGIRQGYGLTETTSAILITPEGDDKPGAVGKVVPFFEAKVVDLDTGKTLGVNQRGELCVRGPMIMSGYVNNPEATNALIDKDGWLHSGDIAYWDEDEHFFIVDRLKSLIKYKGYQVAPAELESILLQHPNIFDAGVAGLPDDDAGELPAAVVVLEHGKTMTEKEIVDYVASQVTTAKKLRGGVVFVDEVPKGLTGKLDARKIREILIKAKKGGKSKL
Sequence of Paired box protein Pax-8 (Q06710 whole entry): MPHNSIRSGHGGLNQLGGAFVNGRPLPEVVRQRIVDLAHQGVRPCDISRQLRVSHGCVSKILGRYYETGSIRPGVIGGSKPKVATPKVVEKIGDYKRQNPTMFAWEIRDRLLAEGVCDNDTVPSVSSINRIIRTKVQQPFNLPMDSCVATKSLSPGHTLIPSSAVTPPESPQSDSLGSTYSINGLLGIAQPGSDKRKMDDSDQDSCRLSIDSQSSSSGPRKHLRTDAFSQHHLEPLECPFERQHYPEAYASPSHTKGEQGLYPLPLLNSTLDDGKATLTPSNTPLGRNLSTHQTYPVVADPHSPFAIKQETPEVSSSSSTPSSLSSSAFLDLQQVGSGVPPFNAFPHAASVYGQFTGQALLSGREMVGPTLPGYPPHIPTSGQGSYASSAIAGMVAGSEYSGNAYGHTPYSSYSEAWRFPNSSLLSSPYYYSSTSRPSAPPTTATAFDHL

Question: With `C#CCOCCOCCOCCNc1nc(N2CCN(C(=O)[C@H](CCCCN)n3cc([C@@H](N)[C@H](C)CC)nn3)CC2)nc(N2CCN(C(=O)[C@H](CCC(=O)O)n3cc([C@@H](N)CCCCN)nn3)CC2)n1` as the molecule, how does the IC50 [1] read?
Answer: > 20 µM (inactive)

Question: For `CN(C)c1ccc(CN(C(=O)c2ccccc2Br)C2CCS(=O)(=O)C2)cc1` (stereo unspecified), which AC50 [2] is on record?
Answer: 1.88 µM (active)

Question: With `C[C@@H]1CN([C@@H](C)CO)C(=O)c2cccc(NS(=O)(=O)c3ccccc3)c2O[C@H]1CN(C)Cc1ccc(-c2ccccc2)cc1` as the molecule, how does the AC50 [3] read?
Answer: 1.39 µM (active)

Question: For `C[C@H]1CN([C@@H](C)CO)C(=O)Cc2cc(NC(=O)NC3CCCCC3)ccc2O[C@@H]1CN(C)Cc1ccc(Cl)c(Cl)c1`, which AC50 [3] is on record?
Answer: 7.18 µM (active)

Question: Which IC50 [1] does the source give for `CCC(C)[C@H]1CN=C(N)N1CCc1cc(C(F)(F)F)cc(C(F)(F)F)c1` (stereo partly specified) here?
Answer: > 20 µM (inactive)

Question: What does the source list for `CCOc1ccc(CCNC(=O)C2CCCN(c3ncnc4c3nc3n4CCCCC3)C2)cc1` (stereo unspecified)?
Answer: EC50 [4]: > 53 µM (inactive); IC50 [5]: > 47.1 µM (inactive)

Question: Which AC50 [2] does the source give for `CCC(C)Nc1nc2c(c(=O)n(C)c(=O)n2C)n1Cc1ccc(F)cc1` (stereo unspecified) here?
Answer: 2.09 µM (active)

Question: With `CCC(Oc1cc(Cl)ccc1Cl)C(=O)NNC(=O)CCC(=O)O` (stereo unspecified) as the molecule, how does the EC50 [6] read?
Answer: > 112 µM (not active)

Question: What about the EC50 [7] of the same molecule?
Answer: > 112 µM (not active)

Question: Which AC50 [3] does the source give for `C[C@@H]1CN([C@@H](C)CO)C(=O)c2cccc(NC(=O)Nc3ccc(C(F)(F)F)cc3)c2O[C@H]1CN(C)C(=O)Nc1ccc(C(F)(F)F)cc1` here?
Answer: 6.06 µM (active)

Question: With `COCC#Cc1ccc2c(c1)O[C@H](CN(C)S(=O)(=O)c1cccc(F)c1)[C@@H](C)CN([C@H](C)CO)S2(=O)=O` as the molecule, how does the AC50 [8] read?
Answer: > 52 µM (inactive)

Question: What does the source list for `c1ccc2cc(OCCCn3ccnc3)ccc2c1`?
Answer: EC50 [9]: 1.01 µM (active); IC50 (cells): 42.5 µM (active); EC50 [10]: > 60 µM (not active)

Question: Which AC50 [11] does the source give for `COc1ccccc1S(=O)(=O)N(C)C[C@@H]1Oc2cc(C#CCC(C)C)ccc2S(=O)(=O)N([C@@H](C)CO)C[C@@H]1C` here?
Answer: 3.17 µM (active)

Question: Which EC50 [4] does the source give for `CC1(C)Cc2c(sc(/N=C/N3CCCC3)c2C#N)C(C)(C)N1` here?
Answer: > 53 µM (inactive)

Question: And the IC50 [5]?
Answer: > 47.1 µM (inactive)

Question: For `CC1=CC2=NC(=O)/C(=C\c3ccc(OC(=O)c4ccco4)cc3)C(=N)N2O1`, which IC50 (cells) is on record?
Answer: 21.8 µM (active)

Question: What does the source list for `C[C@@H]1CCCCO[C@H](CN(C)Cc2ccncc2)[C@H](C)CN([C@H](C)CO)C(=O)c2cc(NC(=O)Nc3ccc(C(F)(F)F)cc3)ccc2O1`?
Answer: AC50 (Paired box protein Pax-8): 7.43 µM (active); AC50 [12]: 35.4 µM (active)

Question: With `Cc1nc2sc(C(c3ccccc3)N3CCN(c4ccccc4F)CC3)c(O)n2n1` (stereo unspecified) as the molecule, how does the EC50 [6] read?
Answer: > 112 µM (not active)

Question: And the EC50 [7]?
Answer: > 112 µM (not active)

Question: Which IC50 (cells) does the source give for `Cc1ccccc1C(=O)NN1CC(C(=O)OCc2ccc(Cl)c(Cl)c2)CC1=O` (stereo unspecified) here?
Answer: 22.2 µM (active)

Question: Which AC50 [11] does the source give for `COc1ccc(NC(=O)N(C)C[C@@H]2Oc3cc(-c4ccc(C)cc4)ccc3S(=O)(=O)N([C@H](C)CO)C[C@H]2C)cc1` here?
Answer: 3.38 µM (active)

Question: Which AC50 [3] does the source give for `C[C@H](CO)N1C[C@H](C)[C@H](CN(C)Cc2ccc(C(F)(F)F)cc2)Oc2ccc(NS(=O)(=O)c3ccc(Cl)cc3)cc2C1=O` here?
Answer: 4.5 µM (active)

Question: With `CC(C)OC(=O)c1cc(C(=O)c2cc(Cl)ccc2O)coc1=N` as the molecule, how does the IC50 (cells) read?
Answer: 23.2 µM (active)

Question: Which EC50 [9] does the source give for `CCCCN(C)CCCNC(=O)c1cc(-c2cccs2)nc2ccccc12` here?
Answer: 0.183 µM (active)

Question: And the IC50 [1]?
Answer: > 20 µM (inactive)

Question: And the EC50 [10]?
Answer: > 60 µM (not active)

Question: Which AC50 [2] does the source give for `COC(=O)c1c(C(=O)OC)c(-c2ccc(F)cc2)n2c1CSC2` here?
Answer: 0.218 µM (active)

Question: Which AC50 [2] does the source give for `CCCC(=O)Nc1ccc(-c2csc(NNC(C)=O)n2)cc1` here?
Answer: 0.859 µM (active)

Question: Which results are given for `C[C@@H]1CN([C@H](C)CO)C(=O)c2cc(NC(=O)Nc3cccc4ccccc34)ccc2O[C@@H]1CN(C)C(=O)Nc1cccc2ccccc12`?
Answer: AC50 (Paired box protein Pax-8): 6.15 µM (active); AC50 [12]: 49.7 µM (active); AC50 [13]: 46.1 µM (active)

Question: Which AC50 [3] does the source give for `C[C@@H]1CCCCO[C@H](CN(C)C(=O)Nc2ccc3c(c2)OCO3)[C@@H](C)CN([C@H](C)CO)C(=O)c2cc(NC(=O)Nc3ccc(C(F)(F)F)cc3)ccc2O1` here?
Answer: 2.56 µM (active)
